# Measured values reported in patent US20080293749A1, “Pyrrolidine(thi)ones Substituted by Heterocyclic Substituents in The 3-Position” (Gruenenthal GmbH, priority 2005, published 2008).
# What was measured:
# [1] = system: IL-12 production of LPS-activated monocytes; experiment: Inhibition of IL-12 production of LPS-activated human monocytes (sandwich ELISA of culture supernatants); type: cell-based; details: Monocyte; human CD14-positive monocytes, 1 h preincubation with test substance, 10 μg/ml LPS from E. coli, 24 hours
# Method: (§1) Stimulation of human monocytes with lipopolysaccharide for secretion of IL-10 and IL-12:
# (§2) Human monocytes were isolated from peripheral blood mononuclear cells (PBMC), which were obtained from heparinized whole blood by means of a Ficoll density gradient centrifugation. For this, the PBMC were incubated with a monoclonal antibody which is directed against the monocyte-specific surface molecule CD14 and to which superparamagnetic microbeads (Miltenyi Biotech, Bergisch Gladbach) are coupled. For positive selection of the labelled monocytes from the cell mixture of the PBMC, the entire cell suspension was applied to a column with a ferromagnetic carrier matrix and this was placed in a magnetic field. The cells loaded with microbeads were thereby bound to the carrier matrix, and non-labelled cells passed through the column and were discarded. After removing the matrix from the magnetic field, the antibody-laden cells were eluted by rinsing the now demagnetized column with buffer. The purity of this CD14-positive monocyte population obtained in this way is about 95-98%. These monocytes were incubated in a density of 10^6 cells/ml of culture medium (RPMI, supplemented with 10% foetal calf serum) with the test substances, dissolved in DMSO, at 37° C. and 5% CO2 for one hour. 10 μg/ml of LPS from E. coli were then added. After 24 hours, cell-free culture supernatants were taken and tested for the content of IL-10 and IL-12.
# (§3) The concentration of IL-12 and IL-10 in the cell culture supernatants was determined by means of sandwich ELISAs using two anti-IL-12 and, respectively, IL-10 monoclonal antibodies (Biosource Europe, Fleurus, Belgium). A reference standard curve with human IL-10 and, respectively, IL-12 was included. The detection limit of the ELISAs was 15 pg/ml.
# [2] = system: IL-10 production of LPS-activated monocytes; experiment: Increase in IL-10 production of LPS-activated human monocytes (sandwich ELISA of culture supernatants); type: cell-based; details: human CD14-positive monocytes, 1 h preincubation with test substance, 10 μg/ml LPS from E. coli, 24 hours; for EC200: Monocyte
# Method: as §1, §2, §3
# [3] = Pharmacokinetics after intravenous administration to rats (plasma concentration/time curves); type: in vivo; details: 10 mg/kg each, both compounds given together, estimated from the FIGURE
# Method: Volumes of 2 ml/kg were administered intravenously to rats through the tail vein. After defined times, blood samples were taken from the retro-orbital plexus and plasma obtained. Plasma concentrations of both compounds were determined using valid bioanalytical methods.
SMILES,IC50 [1],melting point,distribution volume [3],EC200 [2],Increase in IL-10 production EC200 [2]
"CC1=Nc2cc(Cl)ccc2CN1C1CC(=O)NC1=O (stereo not shown) [Example 15bb, 3-(7-chloro-2-methyl-4H-quinazolin-3-yl)-pyrrolidine-2,5-dione]",0.419 µg/mL,153 to 155 °C,–,5.6 µg/mL,–
"CC1=Nc2ccccc2CN1C1CC(=O)NC1=O (stereo not shown) [Example 15b, 3-(2-methyl-4H-quinazolin-3-yl)-pyrrolidine-2,5-dione]",4 µg/mL,72 to 75 °C,–,> 50 µg/mL,–
"O=C1CC(N2C=Nc3cccc(F)c3C2)C(=O)N1 (stereo not shown) [Example 11b, 3-(5-fluoro-4H-quinazolin-3-yl)-pyrrolidine-2,5-dione]",0.514 µg/mL,184 to 191 °C,–,5.6 µg/mL,–
"O=C1CC(N2C=Nc3ccc(Cl)cc3C2)C(=O)N1 (stereo not shown) [Example 10c, 3-(6-chloro-4H-quinazolin-3-yl)-pyrrolidine-2,5-dione]",1.17 µg/mL,166 °C,–,> 50 µg/mL,–
"O=C1CC(N2C=Nc3ccccc3C2)C(=O)N1 (stereo not shown) [Example 11a, 3-(4H-quinazolin-3-yl)-pyrrolidine-2,5-dione]",0.6 µg/mL,168 to 174 °C,–,5 µg/mL,–
"COc1ccc2c(c1)N=CN(C1CC(=O)NC1=O)C2 (stereo not shown) [Example 9b, 3-(7-methoxy-4H-quinazolin-3-yl)-pyrrolidine-2,5-dione]",15 µg/mL,174 to 184 °C,–,16 µg/mL,–
"Cc1cccc2c1CN(C1CC(=O)NC1=O)C=N2 (stereo not shown) [Example 8b, 3-(5-methyl-4H-quinazolin-3-yl)-pyrrolidine-2,5-dione]",7.3 µg/mL,221 to 224 °C,–,> 50 µg/mL,–
"O=C1CC(N2C=Nc3cc(Cl)ccc3C2)C(=O)N1 (stereo not shown) [Example 8g, 3-(7-chloro-4H-quinazolin-3-yl)-pyrrolidine-2,5-dione]",0.62 µg/mL,194 °C,–,1 µg/mL,–
"O=C1CC(N2C=Nc3cccc(Cl)c3C2)C(=O)N1 (stereo not shown) [Example 10a, 3-(5-chloro-4H-quinazolin-3-yl)-pyrrolidine-2,5-dione]",0.303 µg/mL,218 °C,–,16 µg/mL,–
"CC1=Nc2cc(F)ccc2CN1C1CC(=O)NC1=O (stereo not shown) [Example 15cc, 3-(7-fluoro-2-methyl-4H-quinazolin-3-yl)-pyrrolidine-2,5-dione]",6 µg/mL,–,–,20 µg/mL,–
"O=C1CC(N2C=Nc3cc(F)cc(Cl)c3C2)C(=O)N1 (stereo not shown) [Example 1, 3-(5-chloro-7-fluoro-4H-quinazolin-3-yl)-pyrrolidine-2,5-dione]",1.5 µg/mL,–,–,4 µg/mL,–
"O=C1CC(N2C=Nc3cc(F)c(F)cc3C2)C(=O)N1 (stereo not shown) [Example 8d, 3-(6,7-difluoro-4H-quinazolin-3-yl)-pyrrolidine-2,5-dione]",0.715 µg/mL,–,–,> 50 µg/mL,–
"O=C1CC(N2C=Nc3cc(F)ccc3C2)C(=O)N1 (stereo not shown) [Example 3, 3-(7-fluoro-4H-quinazolin-3-yl)-pyrrolidine-2,5-dione]",0.13 µg/mL,–,0.26 L/kg,0.4 µg/mL,–

# Further lines, with some results ahead:
IC50 [1],melting point,distribution volume [3],SMILES,EC200 [2],Increase in IL-10 production EC200 [2]
0.52 µg/mL,176 to 178 °C,–,"CC1=Nc2cc(F)cc(F)c2CN1C1CC(=O)NC1=O (stereo not shown) [Example 15e, 3-(5,7-difluoro-2-methyl-4H-quinazolin-3-yl)-pyrrolidine-2,5-dione]",3 µg/mL,–
1.8 µg/mL,183 to 185 °C,–,"CC1=Nc2cc(F)c(F)cc2CN1C1CC(=O)NC1=O (stereo not shown) [Example 15u, 3-(6,7-difluoro-2-methyl-4H-quinazolin-3-yl)-pyrrolidine-2,5-dione]",> 50 µg/mL,–
4 µg/mL,–,–,"CC1=Nc2cccc(Br)c2CN1C1CC(=O)NC1=O (stereo not shown) [Example 15h, 3-(5-bromo-2-methyl-4H-quinazolin-3-yl)-pyrrolidine-2,5-dione]",> 50 µg/mL,–
> 50 µg/mL,–,–,"O=C1CC(N2C(=O)c3ccccc3C2=O)C(=O)N1 (stereo not shown) [XXVIII = C1, 2-(2,5-dioxo-pyrrolidin-3-yl)-isoindole-1,3-dione, reference compound]",–,no increase
2 µg/mL,185 °C,–,"CC1=Nc2cccc(F)c2CN1C1CC(=O)NC1=O (stereo not shown) [Example 15l, 3-(5-fluoro-2-methyl-4H-quinazolin-3-yl)-pyrrolidine-2,5-dione]",5.6 µg/mL,–
0.884 µg/mL,163 to 170 °C,–,"CC1=Nc2cccc(Cl)c2CN1C1CC(=O)NC1=O (stereo not shown) [Example 15i, 3-(5-chloro-2-methyl-4H-quinazolin-3-yl)-pyrrolidine-2,5-dione]",15 µg/mL,–
0.521 µg/mL,179 to 181 °C,–,"CC1=Nc2cc(F)cc(Cl)c2CN1C1CC(=O)NC1=O (stereo not shown) [Example 15j, 3-(5-chloro-7-fluoro-2-methyl-4H-quinazolin-3-yl)-pyrrolidine-2,5-dione]",5 µg/mL,–
